In one assay the test system is HIV. As to conditions: R. Nagorny et al., AIDS 7: 129-130 (1993); cited from earlier work.
The target in a further assay is T1, HIV-1 Protease (Human immunodeficiency virus type 1 group M subtype B, UniProt P04585).
T1 construct: HIV-1 Protease; purchased Bachem Bioscience Inc
In words: HIV protease inhibition (undecapeptide substrate cleavage, HPLC). The class given is biochemical. As to conditions: 37° C., 5 min, 40 μM substrate, pH 4.7, 2% DMSO, read-out: 50% INHIBITION CONCENTRATION
How it is done: 1.0 mM dithiothreitol (DTT) was prepared fresh daily in 0.1% polyethylene glycol (mw 8000) 80 mM NaOAc, 160 mM NaCl, 1.0 mM EDTA, and brought to pH 4.7 with HCl.
The enzyme is obtained from Bachem Bioscience Inc. The undiluted enzyme is thawed from -80° C. and diluted 50-fold with DTT buffer. The solution is always kept at 0° C. on ice water and used in the experiment within 20 minutes after thawing.
Substrate III from Bachem Bioscience Inc. is the undecapeptide H-His-Lys-Ala-Arg-Val-Leu-p-Nitrophenylalanine-Glu-Ala-Norleucine-Ser-NH2 (>97% purity). A 200 μM stock solution in DTT buffer is prepared and stored on ice. Substrate solution is prepared fresh daily.
10 mM inhibitor (I) in dimethyl sulfoxide (DMSO) is diluted to 200 μM with DTT buffer. From the 200 μM stock solution is made a 10 μM stock solution with 2% DMSO in DTT buffer. The two inhibitor solutions are used to make final [I] =100, 50, 20, 10, 5, 2, 1, 0.5 and 0 μM with 2% DMSO in DTT buffer in each reaction well (total inhibitor volume of 50 μl).
To each reaction well is added 20 μl of substrate (final concentration of 40 μM), 50 μl of inhibitor (at a concentration such that final dilution will produce the test concentration) and 20 μl of DTT buffer. The reaction plate (96 wells) is incubated at 37° C. for at least 5 minutes.
10 μl of the diluted protease is added to the reaction well while the reaction plate is shaking. Once shaken for 10 seconds, the plate is returned to the heating block at 37° C. (final reaction volume 100 μl.)
The reaction is incubated for 5 minutes at 37° C. The reaction is stopped by placing the reaction plate on the shaker and adding 20 μl of 10% trifluoroacetic acid (TFA) and shaking for 10 seconds. The amount of proteolysis is then determined by separation of noncleaved substrate and two cleaved products with reverse-phase HPLC, while measuring absorbance at 220 nm to determine the relative peak areas of the three components. The relative peak areas are used to calculate % conversion to product as a function of inhibitor concentration. The data are plotted as % Control (the ratio of % conversion in the presence and absence of inhibitor×100) versus inhibitor concentration and fitted with the equation Y=100/1+(X/IC50)^A, where IC50 is the inhibitor concentration at 50% inhibition and A is the slope of the inhibition curve.

Another assay relates to HIV1iiib in H9 cells. As to the kind of experiment: Antiviral activity in H9 cells (acute HIV-1 infection, reverse transcriptase assay). The class given is cell-based. As to conditions: Human immunodeficiency virus 1, multiplicity of infection 0.01, 0.1% DMSO, read-out: Concentration for 50% Protection. How it is done: Using the general methods of Pauwels et al., (J. Virol. Methods, 16, 171-185, 1987) and Mann et al. (AIDS Research and Human Retroviruses, 253-255, 1989 (anti-viral assays of active HIV-1 infection were performed in the H9 cell line. Cultures were batch infected in 1 ml of RPM1 1640 media/10% fetal calf serum containing 10^5 infectious doses of HIV1iiib for an effective multiplicity of infection of 0.01. After 2 hours of viral absorption, cells were washed once and palted in 96-wellmicrotiter plates at a density of 10^4 cells per well. Test compounds were added to produce the desired concentration of drug and 0.1% DMSO in a final volume of 200 μl. Uninfected parallel cultures were maintained for XTT cytotoxicity assay at 7 days post infection. Cultures were tested for viral replication by reverse transcriptase assay at 4 and 7 days post infection.

For assay [1], the system named is Staphylococcus aureus UC-76. In words: Antibacterial activity, microtitration dilution method. To be noted: UC76, read-out: minimum inhibitory concentration (MIC). The format is cell-based. The source says: (§1) The compounds of the invention display antibacterial activity when tested by the microtitration dilution method as described in Heifetz, et al., Antimicr. Agents. & Chemoth. 6: 124 (1974) which is incorporated herein by reference.
(§2) By use of the above referenced method, the following minimum inhibitory concentration values (MICs in μg/mL) were obtained for representative compounds of the invention vs. clinically relevant gram positive pathogens which have become highly resistant to conventional therapy in recent years.

Assay [2] concerns Streptococcus pneumonia 5V-1. The description is as above. As to conditions: Streptococcus pneumoniae, 5V1, read-out: minimum inhibitory concentration (MIC). The class given is cell-based.
Source text: as §1, §2

Assay [3] concerns Enterococcus foecalis MGH2. The assay is described as above. To be noted: read-out: minimum inhibitory concentration (MIC). The format is cell-based.
Source text: as §1, §2

Assay [4] has as its system Streptococcus pyogenes C203. The description is as above. To be noted: read-out: minimum inhibitory concentration (MIC). The format is cell-based.
Source text: as §1, §2

The subject of assay [5] is Staphylococcus aureus H228. Described as above. The format is cell-based. As to conditions: read-out: minimum inhibitory concentration (MIC).
Source text: as §1, §2

Converted amounts (≈) assume the structure as drawn.

On to `CC(=O)CC(c1ccccc1)c1c(O)c2ccccc2oc1=O` (stereo not drawn) [Warfarin, 3-(α-acetonylbenzyl)-4-hydroxycoumarin], for which, in the assay on HIV, the “inhibition of cell-free and cell-mediated HIV infection (in words)” value was “inhibiting cell-free and cell-mediated HIV infection”.

As to `O=C1OC(CCc2ccccc2)(c2ccccc2)CC(O)=C1SCc1ccc2c(c1)OCO2` (racemic) [Example 107, 3-(Benzo[1,3]dioxol-5-ylmethylthio)-5,6-dihydro-4-hydroxy-6-phenyl-6-(2-phenylethyl)-2H-pyran-2-one], on HIV-1 Protease, the IC50 is 0.11 µM. Further, the EC50 in the assay with HIV1iiib in H9 cells stood at 8 µM. Besides, the MIC was determined as 100 µg/mL (≈ 217 µM) in assay [1]; 50 µg/mL (≈ 109 µM) in assay [2]; 50 µg/mL (≈ 109 µM) in assay [3]; 50 µg/mL (≈ 109 µM) in assay [4]; 50 µg/mL (≈ 109 µM) in assay [5].

On to `CC(C)c1ccccc1SC1=C(O)CC(CCc2ccccc2)(c2ccccc2)OC1=O` (racemic) [Example 72, 5,6-Dihydro-4-hydroxy-3-(2-isopropylphenylthio)-6-phenyl-6-(2-phenylethyl)-2H-pyran-2-one], for which the MIC stood at 25 µg/mL (≈ 56.2 µM) in assay [1]; 25 µg/mL (≈ 56.2 µM) in assay [2]; 100 µg/mL (≈ 225 µM) in assay [3]; 25 µg/mL (≈ 56.2 µM) in assay [4]; 25 µg/mL (≈ 56.2 µM) in assay [5].

Consider `Cc1ccc(C(C)C)c(SC2=C(O)CC(CCc3ccc4c(c3)OCO4)(c3ccccc3)OC2=O)c1` (stereo not drawn) [Example 133], for which the MIC was 12.5 µg/mL (≈ 24.9 µM) in assay [1]; 12.5 µg/mL (≈ 24.9 µM) in assay [2]; 25 µg/mL (≈ 49.7 µM) in assay [3]; 25 µg/mL (≈ 49.7 µM) in assay [4]; 6.25 µg/mL (≈ 12.4 µM) in assay [5].

The values above are taken from patent US5789440A, “5,6-dihydropyrone derivatives as protease inhibitors and antiviral agents” (Warner-Lambert Company, priority 1994, dated 1998).
